Results as given in PMC5874719, “A π-Halogen Bond of Dibenzofuranones with the Gatekeeper Phe113 in Human Protein Kinase CK2 Leads to Potent Tight Binding Inhibitors” (Pharmaceuticals, 2018).
Several values for one entry are separate records, joined by “and”; a condition that tells them apart may be missing. Equal values may be shown once. Read-outs that look alike come from different tables or passages of the source.

Legend:
[1] = target: T1, human protein kinase CK2 holoenzyme (CK2α2β2) (Homo sapiens, UniProt P68400); assay: CE-based CK2 inhibition assay (phosphorylation of substrate peptide […]); type: biochemical; details: for remaining activity at 10 µM: 10 µM compound, compared to activity without compound, read-out: residual enzymatic activity; for IC50: CK2 holoenzyme, 100 µM ATP, 13 concentrations 0.01 nM to 10 µM
T1 construct: made in house
T1 sequence (P68400 whole entry): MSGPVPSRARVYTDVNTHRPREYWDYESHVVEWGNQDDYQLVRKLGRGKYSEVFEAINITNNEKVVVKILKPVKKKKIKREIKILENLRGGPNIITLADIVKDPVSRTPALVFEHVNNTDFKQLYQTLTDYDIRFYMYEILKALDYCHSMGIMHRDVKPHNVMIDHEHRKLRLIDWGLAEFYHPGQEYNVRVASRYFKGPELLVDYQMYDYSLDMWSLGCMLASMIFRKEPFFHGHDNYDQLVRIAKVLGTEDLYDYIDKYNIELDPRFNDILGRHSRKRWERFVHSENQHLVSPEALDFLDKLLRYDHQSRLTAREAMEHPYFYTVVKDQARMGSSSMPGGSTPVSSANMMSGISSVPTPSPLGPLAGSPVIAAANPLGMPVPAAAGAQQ
T1 sequence (P67870 whole entry partner): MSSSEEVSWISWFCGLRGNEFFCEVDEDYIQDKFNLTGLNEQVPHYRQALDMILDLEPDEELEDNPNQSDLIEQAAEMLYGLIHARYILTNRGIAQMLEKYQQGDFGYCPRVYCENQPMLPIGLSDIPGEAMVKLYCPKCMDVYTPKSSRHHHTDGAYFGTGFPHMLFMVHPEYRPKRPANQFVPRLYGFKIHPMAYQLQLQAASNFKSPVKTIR
Protocol: The phosporylation of an artificial substrate peptide ([…]) by the purified holoenzyme was analyzed in a capillary electrophoresis (CE) assay as described before. This peptide is commonly used for the determination of CK2 activity and phosphorylation was determined in the presence and in the absence of the compounds. For this purpose a stock solution of 10 mM in DMSO was prepared for each compound and diluted in the assay to a final concentration of 10 µM. […] Consequently 13 concentrations of both dibenzofurans, ranging from 0.01 nM to 10 µM were tested on their inhibition of CK2 dependent substrate phosphorylation in the presence of 100 μM ATP. […] This can be used to determine the so-called apparent Ki (Ki app) for different substrate (ATP) concentrations.
Human protein kinase CK2 holoenzyme was pre-incubated for 10 min with 13 different concentrations of each compounds ranging from 0.01 nM to 10 μM before the enzymatic activity was determined. […] The resulting inhibition in % was set into relation to the concentration of the corresponding compound in a logarithmic scale. For the calculation of the sigmoidal curve fitting the date GraphPad Prism (GraphPad, La Jolla, CA, USA) was used, as well as for the compound concentrations corresponding to 50% enzyme inhibition.
Phosphorylation of the substrate peptide […] by human protein kinase CK2 holoenzyme was determined in the CE assay at different ATP-concentrations (6, 30, 60, 150, 300, and 400 μM).
In order to determine the inhibition toward human protein kinase CK2 holoenzyme, the dibenzo[b,d]furan derivatives were subjected to the CE-based CK2 assay, as already described for other novel CK2 inhibitors before. In summary, 78 µL of kinase buffer (50 mM Tris/HCl, pH 7.5, 100 mM NaCl, 10 mM MgCl2 and 1 mM DTT) containing 0.25 µg CK2 holoenzyme were supplemented with 2 µL of the test-compound dissolved in DMSO and incubated at 37 °C for 10 min. After the addition of 120 µL of assay buffer (25 mM Tris/HCl, pH 8.5, 150 mM NaCl, 5 mM MgCl2, 1 mM DTT, 190 µM substrate peptide […] and 100 µM ATP) the CK2 reactions were carried out for 15 min at 37 °C, before they were stopped by ice cooling and the addition of 5 µL of EDTA (10 mM, pH 8.0). The samples were then analyzed for phosphorylation of the CK2 substrate peptide by capillary electrophoresis. […] Controls for 100% and 0% inhibition were realized by samples containing pure DMSO and samples additionally lacking the CK2 holoenzyme. IC50 were calculated from the obtained dose response curves.

[2] = target: T2, LCK (Homo sapiens, UniProt P06239); parameters: method as in PMID 22387500; details: 10 µM inhibitor; cited from earlier work
T2 sequence (P06239 whole entry): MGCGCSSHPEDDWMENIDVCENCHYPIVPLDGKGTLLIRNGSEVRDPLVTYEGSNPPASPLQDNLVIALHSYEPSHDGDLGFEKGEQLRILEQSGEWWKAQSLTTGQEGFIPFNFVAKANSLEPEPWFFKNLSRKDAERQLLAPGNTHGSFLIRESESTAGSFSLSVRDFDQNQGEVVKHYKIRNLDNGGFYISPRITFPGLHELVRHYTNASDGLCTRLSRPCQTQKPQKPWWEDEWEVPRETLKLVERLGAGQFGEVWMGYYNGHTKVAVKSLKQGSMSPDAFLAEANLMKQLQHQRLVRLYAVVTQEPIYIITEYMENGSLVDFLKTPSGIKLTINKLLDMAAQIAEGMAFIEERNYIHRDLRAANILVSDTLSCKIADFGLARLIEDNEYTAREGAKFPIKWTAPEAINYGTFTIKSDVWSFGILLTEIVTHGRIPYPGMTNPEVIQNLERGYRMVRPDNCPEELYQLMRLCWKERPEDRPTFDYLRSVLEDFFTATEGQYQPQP

[3] = target: T3, PIM1 (Homo sapiens, UniProt P11309); parameters: method as in PMID 22387500; details: 10 µM inhibitor; cited from earlier work
T3 sequence (P11309 whole entry): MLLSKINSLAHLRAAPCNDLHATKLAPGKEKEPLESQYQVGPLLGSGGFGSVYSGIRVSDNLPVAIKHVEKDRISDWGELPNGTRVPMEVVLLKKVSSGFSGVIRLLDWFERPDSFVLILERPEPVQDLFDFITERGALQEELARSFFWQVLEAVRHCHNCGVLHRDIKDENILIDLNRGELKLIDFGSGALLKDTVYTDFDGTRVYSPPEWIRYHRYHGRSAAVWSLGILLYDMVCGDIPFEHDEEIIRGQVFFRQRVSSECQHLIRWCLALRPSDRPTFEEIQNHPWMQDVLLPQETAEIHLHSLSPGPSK

[4] = target: T4, Aurora A (Homo sapiens, UniProt O14965); parameters: method as in PMID 22387500; details: 10 µM inhibitor; cited from earlier work
T4 construct: purchased Reaction Biology Corp
T4 sequence (O14965 1-403): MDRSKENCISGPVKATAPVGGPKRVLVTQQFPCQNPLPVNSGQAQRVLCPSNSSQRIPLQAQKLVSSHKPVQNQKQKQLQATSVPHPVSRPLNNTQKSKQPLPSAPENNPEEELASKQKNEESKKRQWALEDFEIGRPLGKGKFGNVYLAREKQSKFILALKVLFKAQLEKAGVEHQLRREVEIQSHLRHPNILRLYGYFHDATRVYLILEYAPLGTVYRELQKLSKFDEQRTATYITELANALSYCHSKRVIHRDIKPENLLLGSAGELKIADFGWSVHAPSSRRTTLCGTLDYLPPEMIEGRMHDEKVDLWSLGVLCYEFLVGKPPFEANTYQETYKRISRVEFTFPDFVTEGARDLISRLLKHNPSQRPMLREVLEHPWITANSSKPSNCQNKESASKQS

[5] = system: PKD/PRKD2; parameters: method as in PMID 22387500; details: 10 µM inhibitor; cited from earlier work
[6] = target: T5, SKG1 (Homo sapiens, UniProt O00141); parameters: method as in PMID 22387500; details: 10 µM inhibitor; cited from earlier work
T5 construct: purchased Reaction Biology Corp
T5 sequence (O00141 whole entry): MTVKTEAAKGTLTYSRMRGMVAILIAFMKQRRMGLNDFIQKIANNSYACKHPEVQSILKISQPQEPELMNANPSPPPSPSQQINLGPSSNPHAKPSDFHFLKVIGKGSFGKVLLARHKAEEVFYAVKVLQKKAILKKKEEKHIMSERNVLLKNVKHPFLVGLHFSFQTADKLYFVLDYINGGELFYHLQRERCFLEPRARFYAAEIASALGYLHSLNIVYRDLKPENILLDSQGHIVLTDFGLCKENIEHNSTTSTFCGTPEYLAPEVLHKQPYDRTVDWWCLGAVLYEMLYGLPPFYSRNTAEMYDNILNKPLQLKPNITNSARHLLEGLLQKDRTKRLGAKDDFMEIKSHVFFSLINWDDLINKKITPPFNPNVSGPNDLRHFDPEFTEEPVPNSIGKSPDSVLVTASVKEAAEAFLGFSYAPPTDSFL

[7] = target: T6, FLT4/VEGFR3 (Homo sapiens, UniProt P35916); parameters: purchased Reaction Biology Corp; method as in PMID 22387500; details: 10 µM inhibitor; cited from earlier work
T6 sequence (P35916 25-1363): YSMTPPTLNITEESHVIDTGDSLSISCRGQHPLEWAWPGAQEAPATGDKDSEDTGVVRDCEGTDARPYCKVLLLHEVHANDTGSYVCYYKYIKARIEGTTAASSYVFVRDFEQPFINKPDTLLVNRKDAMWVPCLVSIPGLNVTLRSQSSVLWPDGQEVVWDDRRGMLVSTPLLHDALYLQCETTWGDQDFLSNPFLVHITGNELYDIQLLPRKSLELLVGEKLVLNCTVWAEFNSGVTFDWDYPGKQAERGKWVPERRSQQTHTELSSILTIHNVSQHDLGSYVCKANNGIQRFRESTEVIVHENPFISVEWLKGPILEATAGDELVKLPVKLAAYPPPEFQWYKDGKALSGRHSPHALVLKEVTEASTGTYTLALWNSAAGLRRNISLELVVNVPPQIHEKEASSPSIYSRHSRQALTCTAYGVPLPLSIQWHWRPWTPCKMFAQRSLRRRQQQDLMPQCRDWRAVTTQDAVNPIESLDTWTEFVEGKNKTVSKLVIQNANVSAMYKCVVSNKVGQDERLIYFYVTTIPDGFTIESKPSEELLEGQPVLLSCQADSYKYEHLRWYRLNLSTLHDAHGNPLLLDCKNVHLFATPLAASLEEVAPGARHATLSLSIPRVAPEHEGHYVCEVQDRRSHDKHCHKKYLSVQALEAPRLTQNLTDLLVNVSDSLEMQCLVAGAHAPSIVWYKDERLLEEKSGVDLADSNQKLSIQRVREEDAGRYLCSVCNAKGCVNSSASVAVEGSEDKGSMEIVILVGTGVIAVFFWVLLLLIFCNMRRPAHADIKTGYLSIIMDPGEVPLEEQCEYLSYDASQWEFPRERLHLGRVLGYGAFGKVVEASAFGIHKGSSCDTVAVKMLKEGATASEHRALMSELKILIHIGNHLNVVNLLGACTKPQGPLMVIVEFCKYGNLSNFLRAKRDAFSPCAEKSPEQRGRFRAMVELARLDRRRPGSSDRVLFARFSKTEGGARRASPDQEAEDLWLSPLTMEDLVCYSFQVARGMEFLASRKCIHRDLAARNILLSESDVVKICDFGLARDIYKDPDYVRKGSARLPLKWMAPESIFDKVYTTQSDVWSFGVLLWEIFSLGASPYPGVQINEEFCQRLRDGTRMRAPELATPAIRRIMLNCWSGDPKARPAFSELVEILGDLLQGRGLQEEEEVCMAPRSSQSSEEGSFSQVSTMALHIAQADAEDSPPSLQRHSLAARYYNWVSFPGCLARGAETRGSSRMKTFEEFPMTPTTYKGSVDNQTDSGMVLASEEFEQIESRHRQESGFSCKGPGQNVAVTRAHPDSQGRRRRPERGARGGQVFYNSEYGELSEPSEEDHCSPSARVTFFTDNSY

[8] = target: T7, KDR/VEGFR2 (Homo sapiens, UniProt P35968); parameters: purchased Reaction Biology Corp; method as in PMID 22387500; details: 10 µM inhibitor; cited from earlier work
T7 sequence (P35968 20-1356): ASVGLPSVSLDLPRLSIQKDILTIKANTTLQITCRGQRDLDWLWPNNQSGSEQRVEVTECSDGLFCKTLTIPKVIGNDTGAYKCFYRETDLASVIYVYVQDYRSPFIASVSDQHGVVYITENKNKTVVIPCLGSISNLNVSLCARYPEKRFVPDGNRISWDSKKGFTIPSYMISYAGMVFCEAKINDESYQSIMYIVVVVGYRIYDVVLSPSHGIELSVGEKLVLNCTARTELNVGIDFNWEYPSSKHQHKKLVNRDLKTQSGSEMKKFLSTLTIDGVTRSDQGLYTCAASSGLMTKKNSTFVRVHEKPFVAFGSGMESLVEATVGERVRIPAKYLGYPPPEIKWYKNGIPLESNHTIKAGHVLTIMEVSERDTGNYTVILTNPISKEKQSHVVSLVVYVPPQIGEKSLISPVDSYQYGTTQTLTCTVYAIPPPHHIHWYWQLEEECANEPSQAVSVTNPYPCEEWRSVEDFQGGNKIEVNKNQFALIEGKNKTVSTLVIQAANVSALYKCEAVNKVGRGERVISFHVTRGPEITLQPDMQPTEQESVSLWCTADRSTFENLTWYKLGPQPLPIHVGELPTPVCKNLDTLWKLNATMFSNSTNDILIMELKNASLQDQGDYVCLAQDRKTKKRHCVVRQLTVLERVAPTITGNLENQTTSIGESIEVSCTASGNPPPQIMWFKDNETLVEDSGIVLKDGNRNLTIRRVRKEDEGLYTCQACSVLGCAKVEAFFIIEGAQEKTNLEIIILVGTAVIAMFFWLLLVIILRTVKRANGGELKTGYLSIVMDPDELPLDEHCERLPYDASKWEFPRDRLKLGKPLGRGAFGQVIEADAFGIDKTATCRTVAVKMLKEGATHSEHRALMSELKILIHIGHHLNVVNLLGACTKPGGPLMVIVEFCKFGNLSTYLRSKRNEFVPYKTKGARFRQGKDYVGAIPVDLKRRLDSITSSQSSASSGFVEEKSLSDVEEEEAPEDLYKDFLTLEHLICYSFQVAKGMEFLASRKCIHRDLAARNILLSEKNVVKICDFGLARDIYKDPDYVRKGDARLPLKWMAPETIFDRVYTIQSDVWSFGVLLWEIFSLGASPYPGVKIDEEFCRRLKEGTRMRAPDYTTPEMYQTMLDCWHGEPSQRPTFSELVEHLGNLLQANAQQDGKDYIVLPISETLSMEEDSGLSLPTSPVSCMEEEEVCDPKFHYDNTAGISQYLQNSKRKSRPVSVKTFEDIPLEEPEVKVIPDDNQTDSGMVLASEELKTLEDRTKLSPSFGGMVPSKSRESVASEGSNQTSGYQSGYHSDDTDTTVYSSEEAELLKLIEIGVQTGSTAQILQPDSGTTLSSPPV

[9] = target: T1, human protein kinase CK2 holoenzyme (CK2α2β2); parameters: method as in PMID 22387500; details: cited from earlier work
[10] = target: T7, KDR/VEGFR2; details: 10 µM inhibitor, 10 µM ATP
Protocol: (§1) For this purpose 61 kinases from different representative subgroups (and CK2α and CK2α’) were tested. Testing was performed with inhibitor concentrations of 10 µM and an ATP concentration of 10 μM. The residual enzyme activity as obtained was set in relation to a control without inhibitor.

[11] = target: C-Met (Homo sapiens, UniProt P08581); details: 10 µM inhibitor, 10 µM ATP
Protocol: as §1

[12] = target: T6, FLT4/VEGFR3; details: 10 µM inhibitor, 10 µM ATP
Protocol: as §1

[13] = target: PKA (Homo sapiens, UniProt P17612); details: 10 µM inhibitor, 10 µM ATP
Protocol: as §1

[14] = target: T3, PIM1; details: 10 µM inhibitor, 10 µM ATP
Protocol: as §1

[15] = target: T2, LCK; assay: biochemical
Protocol: as §1

[16] = system: CK2α; details: towards CK2α, radiometric assay; cited from earlier work
[17] = Morrison equation, ATP 6–400 µM, best fit line extrapolated to ATP concentration = 0, read-out: apparent Ki (Ki app)

SMILES	remaining activity at 10 µM [1] [%]	IC50 [1]	Ki [1, 17]	Ki ([1]; repeated with double the amount of the enzyme CK2, different ATP concentrations, read-out: Ki app) [nM]	kinase inhibited more than 70% at 10 µM concentration [2]	kinase inhibited more than 70% at 10 µM concentration [3]	kinase inhibited more than 70% at 10 µM concentration [4]	kinase inhibited more than 70% at 10 µM concentration [5]	kinase inhibited more than 70% at 10 µM concentration [6]	kinase inhibited more than 70% at 10 µM concentration [7]	kinase inhibited more than 70% at 10 µM concentration [8]	Ki ([9]; ATP concentrations 6 µM to 400 µM) [nM]	IC50 ([9]; earlier work of the authors) [nM]	kinase inhibited more than 70% at 10 µM concentration [10]	kinase inhibited more than 70% at 10 µM concentration [11]	kinase inhibited more than 70% at 10 µM concentration [12]	kinase inhibited more than 70% at 10 µM concentration [13]	kinase inhibited more than 70% at 10 µM concentration [14]	inhibition at 10 µM [15] [%]	IC50 [16] [nM]
COc1ccc(N/C=C2\C(=O)CCc3c2oc2cc(Cl)c(O)c(Cl)c32)cc1 [4a, 7,9-dichloro-1,2-dihydro-8-hydroxy-4-[(4-methoxyphenylamino)methylene]dibenzo[b,d]furan-3(2H)-one]	< 1	7 nM and 5 nM	0.41 nM and 0.4 nM	~4	–	–	–	–	–	–	–	–	–	–	–	–	–	–	–	–
Cc1ccc(NC=C2C(=O)CCc3c2oc2c(Cl)c(Cl)c(O)cc32)cc1 [4b, 6,7-dichloro-1,4-dihydro-8-hydroxy-4-[(4-methylphenylamino)methylene]dibenzo[b,d]furan-3(2H)-one]	–	–	–	–	LCK	PIM1	Aurora A	PKD/PRKD2	SKG1	FLT4/VEGFR3	KDR/VEGFR2	15	29	–	–	–	–	–	–	–
COc1ccc(/N=C/c2c(O)ccc3c2oc2cc(Cl)c(O)c(Cl)c23)cc1 [compound 5, (E)-1,3-dichloro-6-[(4-methoxyphenylimino)methyl]dibenzo[b,d]furan-2,7-diol]	< 1	5 nM and 7 nM	0.46 nM and 0.4 nM	–	–	–	–	–	–	–	–	–	–	KDR/VEGFR2	C-Met	FLT4/VEGFR3	PKA	PIM1	68	7
